In patent US11697646B2, “Triazole N-linked carbamoyl cyclohexyl acids as LPA antagonists” (BRISTOL-MYERS SQUIBB COMPANY, priority 2017, dated 2023) one finds IC50 data, which are given here for eleven compounds.

For one experiment, the target named is T1, human LPA1 (Homo sapiens, UniProt Q92633).
T1 construct: expressed in transfected cells; host or cells: Chinese hamster ovary (CHO) cells
T1 sequence (Q92633 whole entry): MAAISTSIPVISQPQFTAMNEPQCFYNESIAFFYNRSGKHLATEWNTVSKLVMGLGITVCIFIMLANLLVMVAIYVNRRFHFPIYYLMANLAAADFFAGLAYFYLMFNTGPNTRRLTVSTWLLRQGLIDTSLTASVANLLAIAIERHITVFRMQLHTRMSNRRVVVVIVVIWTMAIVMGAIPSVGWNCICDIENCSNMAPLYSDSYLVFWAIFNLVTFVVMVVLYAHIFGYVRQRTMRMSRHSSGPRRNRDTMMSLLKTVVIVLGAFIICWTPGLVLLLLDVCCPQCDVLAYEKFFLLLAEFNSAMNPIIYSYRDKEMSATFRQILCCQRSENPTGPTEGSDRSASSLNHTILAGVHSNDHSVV
The experiment can be described thus: LPA1 functional antagonist assay (calcium flux). It is filed as cell-based. The following applies: CHO cells overexpressing human LPA1; calcium flux induced by 10 nM LPA; read-out: hLPA1 IC50. Here is the method:
The effectiveness of compounds of the present invention as LPA1 inhibitors can be determined in an LPA1 functional antagonist assay as follows:
The cells were then equilibrated to room temperature for 30 minutes before the assay. […] IC50 values were determined by fitting data to a 4-parameter logistic equation (GraphPad Prism, San Diego Calif.).
In general terms: A change in cytosolic calcium serves as a functional read-out for many receptors and channels.
The term IC50 denotes the point on the concentration scale where inhibition reaches its midpoint. On to `Cn1nnc(-c2ccc(O[C@H]3CCC[C@H](C(=O)O)C3)c(C(F)(F)F)n2)c1CNC(=O)OCCCCF` [Example 97, (1S,3S)-3-((6-(5-((((4-fluorobutoxy)carbonyl)amino)methyl)-1-methyl-1H-1,2,3-triazol-4-yl)-2-(trifluoro-methyl)pyridin-3-yl)oxy)cyclohexane-1-carboxylic acid], for which the IC50 turned out to be 25 nM.

Turning to `CCCCCOC(=O)Nc1c(-c2ccc(O[C@H]3CCC[C@H](C(=O)O)C3)cn2)nnn1C` [Example 88], the IC50 was found to be 34 nM.

Consider `CCc1nc(-c2nnn(C)c2CNC(=O)OC2CCCC2)ccc1O[C@H]1CCC[C@H](C(=O)O)C1` [Example 44, (1S,3S)-3-((6-(5-((((cyclopentyloxy)carbonyl)amino)methyl)-1-methyl-1H-1,2,3-triazol-4-yl)-2-ethylpyridin-3-yl)oxy)cyclo-hexane-1-carboxylic acid], for which the IC50 was determined as 37 nM.

Regarding `Cc1nc(-c2nnn(C)c2CNC(=O)NCC(C)C)ccc1O[C@H]1CCC[C@H](C(=O)O)C1` [Example 127, (1S,3S)-3-((6-(5-((3-isobutylureido)methyl)-1-methyl-1H-1,2,3-triazol-4-yl)-2-methylpyridin-3-yl)oxy)cyclohexane-1-carboxylic acid], the 50% inhibitory concentration (IC50) came to 2270 nM.

As for `Cc1nc(-c2nnn(C)c2NC(=O)OC2CCCCC2)ccc1O[C@H]1CCC[C@H](C(=O)O)C1` [Example 141, (1S,3S)-3-((6-(5-(((cyclohexyloxy)carbonyl)amino)-1-methyl-1H-1,2,3-triazol-4-yl)-2-methylpyridin-3-yl)oxy)cyclohexane-1-carboxylic acid], the IC50 stood at 78 nM.

Turning to `Cc1nc(-c2nnn(C)c2NC(=O)O[C@H](C)c2ccccc2)ccc1O[C@H]1CCC[C@H](C(=O)O)C1` [Example 72, (1S,3S)-3-((2-methyl-6-(1-methyl-5-((((R)-1-phenylethoxy)carbonyl)amino)-1H-1,2,3-triazol-4-yl)pyridin-3-yl)oxy)cyclohexane-1-carboxylic acid], the IC50 came out at 26 nM.

Consider `C[C@@H](OC(=O)Nc1c(-c2ccc(O[C@H]3CCC[C@H](C(=O)O)C3)cn2)nnn1C)c1ccccc1` [Example 91, (1S,3S)-3-((6-(1-methyl-5-((((R)-1-phenylethoxy)carbonyl)amino)-1H-1,2,3-triazol-4-yl)pyridin-3-yl)oxy)cyclohexane-1-carboxylic acid], for which the IC50 turned out to be 35 nM.

As to `CCCC(C)NC(=O)Nc1c(-c2ccc(O[C@H]3CCC[C@H](C(=O)O)C3)c(C)n2)nnn1C` (mixture of isomers) [Example 147, (1S,3S)-3-((2-methyl-6-(1-methyl-5-(3-(pentan-2-yl)ureido)-1H-1,2,3-triazol-4-yl)pyridin-3-yl)oxy)cyclo-hexane-1-carboxylic acid], the IC50 was found to be 517 nM.

The same experiment, now with this note: human LPA1 functional antagonist assay; read-out: hLPA1 IC50.
On to `Cc1nc(-c2nnn(C)c2CNC(=O)OC2CC3(CC3)C2)ccc1O[C@H]1CCC[C@H](C(=O)O)C1` [Example 201, (1S,3S)-3-((2-methyl-6-(1-methyl-5-((((spiro[2.3]hexan-5-yloxy)carbonyl)amino)methyl)-1H-1,2,3-triazol-4-yl)pyridin-3-yl)oxy)cyclohexane-1-carboxylic acid], for which the IC50 turned out to be 42 nM.

For `Cc1nc(-c2nnn(C)c2CNC(=O)O[C@H](C)C2CC2)ccc1O[C@H]1CCC[C@H](C(=O)O)C1` [Example 167, (1S,3S)-3-((6-(5-(((((R)-1-cyclo-propylethoxy)carbonyl)amino)methyl)-1-methyl-1H-1,2,3-triazol-4-yl)-2-methylpyridin-3-yl)oxy)cyclohexane-1-carboxylic acid], the IC50 was found to be 427 nM.

For the compound `CCC[C@@H](C)OC(=O)NCc1c(-c2ccc(O[C@H]3CCC[C@H](C(=O)O)C3)c(C)n2)nnn1C` [Example 171, (1S,3S)-3-((2-methyl-6-(1-methyl-5-((((((R)-pentan-2-yl)oxy)carbonyl)amino)methyl)-1H-1,2,3-triazol-4-yl)pyridin-3-yl)oxy)cyclohexane-1-carboxylic acid], the IC50 is 76 nM.
